Source: patent publication US11584712B2, “Alkylamine-substituted perthiocarbamates as dual precursors to hydropersulfide and carbonyl sulfide” (The Johns Hopkins University, priority 2020, dated 2023)
“And” between values parts separate entries of the source, which are not always exact repeats. Identical values can stand only once.

Legend:
[1] = Kinetics of decomposition of 7a and formation of 2a and 9 by UPLC-MS; format: physicochemical; conditions: 7a 20 μM, HPE-IAM 1 mM, ammonium bicarbonate buffer 50 mM with DTPA
Method: An aliquot of the reaction mixture was withdrawn at the specified time and quenched with 1% formic acid. The curves are the calculated best fits to a single-exponential function. The pseudo-first order rate constants for 7a, 9 and 2a are 0.59±0.02, 0.57±002, and 0.58±0.03 min^−1, respectively;

[2] = tested on: isolated-perfused murine heart; experiment: Isolated perfused heart (Langendorff) ischemia-reperfusion, infarct size by TTC staining; conditions: ex vivo mouse heart, 20 min global ischemia, 100 μM infused first 7 min of 90 min reperfusion; KH control 42%
Excerpt: Male C57BL/6J mice obtained from Jackson Laboratories (Bar Harbor, Me., USA) were used for all experiments. Mice were between 12 and 14 weeks of age at the time of experimentation. All animals received humane care in compliance with the “Principles of Laboratory Animal Care” formulated by the National Society for Medical Research and the “Guide for the Care and Use of Laboratory Animals” published by the US National Institutes of Health. The Animal Care and Use Committee from Johns Hopkins University approved of this study.
After anticoagulation with heparin and cervical dislocation, a thoracotomy was performed and the heart was quickly excised and placed in ice-cold Krebs-Henseleit buffer (in mmol/L: 11.1 D-glucose, 1.2 MgSO4, 1.2 KH2PO4, 4.7 KCl, 118 NaCl, 2 CaCl2), 25 NaHCO3). The aorta was cannulated, and the heart was perfused with Krebs-Henseleit buffer (oxygenated with 95% O2/5% CO2 and maintained at pH 7.4) in retrograde fashion at a constant pressure of 80 mm/Hg at 37° C. After baseline equilibration for 20 min, mouse hearts were subjected to 20 min of no-flow global ischemia followed by 90 min of reperfusion. Pharmacological postconditioning with 7b (100 μM) was performed at the onset of reperfusion for 7 min. Hearts were then reperfused for a total of 90 min. Control hearts received no pharmacological postconditioning. […]

H9c2 cells [3] = experiment: H9c2 cell protection from H2O2-mediated oxidative stress, Cell Counting Kit-8 (CCK-8); format: cell-based, rat; conditions: 2 h pretreatment (7b 50, 100, 150 μM; byproduct 150 μM), then H2O2 200 μM 2 h
Method: Cells were seeded at a density of 5×10^3 cells/well. After 24 h, precursor 7b or byproduct 2b was added at 20 μL volumes using DMSO:H2O (<0.01% DMSO as the vehicle). Cells were incubated for 2 h before media was removed and the cells gently washed with PBS (pH 7.4). Then, 180 μL of fresh media and 20 μL H2O2 diluted into H2O were added and cells were incubated for an additional 2 h. At the completion of H2O2 exposure, each well is carefully washed 3 times with PBS (pH 7.4) before adding 100 μL of media, without-FBS, containing 10% v/v CCK-8 (Dojindo) and incubated for 3 h prior to obtaining absorbance values at 450 nm. The relative % viability was calculated as 100 times the ratio of the Abs450 (pretreated, H2O2-exposed) over Abs450 (vehicle-treated, non H2O2-exposed).

[4] = RSSH generation in the presence of glutathione by UPLC-MS; format: physicochemical
Method: The reaction mixture was quenched with 1% formic acid and analyzed by UPLC-MS. Under these conditions, 42±1 μM of 2b formation is observed. RSSH-derived symmetrical dialkyl polysulfide labeled as S3 and S4 (R^1SSnSR^1, n=1-2), and unsymmetrical dialkyl polysulfide labeled as ′S2 to ′S4 (R^1SSnSR^3, n=0-2) formation are observed. 4-Hydroxyphenyl acetamide, labeled as asterisk, is used as internal standard in these experiments;

H9c2 cells [5] = experiment: H9c2 cell protection from H2O2-mediated oxidative stress, SYTOX Green nucleic acid stain; format: cell-based, rat; conditions: 2 h pretreatment (150 μM for 8), then H2O2 200 μM
Method: Cells were seeded at a density of 1×10^4 cells/well. After 24 h, precursor 7b or byproduct 2b is added in 20 μL volumes using DMSO: H2O (<0.01% DMSO). Cells were incubated for 2 h before media was removed and the cells gently washed with PBS (pH 7.4). Then, 180 μL of fresh media and 20 μL H2O2 diluted in H2O were added before cells were incubated for an additional 1 h. After removing this media, 100 μL of media containing 3 μM SYTOX™ Green nucleic acid stain was added, and the cells incubated for 2 h before fluorescence readings were obtained at 485Ex/538Em (Step 1). Finally, an additional 100 μL of media containing 3 μM SYTOX™ and 0.2% Triton X-100 was added in order to permeabilize all cells and incubated for 1 h before fluorescence values measured (Step 2). The relative % cells surviving was calculated as a 100% minus the ratio of the fluorescence value of Step 1 over Step 2 (% cells surviving=100%−(FL538 (Step 1)/FL538 (Step 2)). Fluorescence values for vehicle-treated, non-H2O2-exposed wells were treated as background cell death and this value is added to the % cell survival for each subsequent group.
See Hofgaard et al., 2006, for general procedures. […] After removing this media, 100 μL of media containing 3 μM SYTOX® Green nucleic acid stain was added, and the cells incubated for 2 h before fluorescence readings were obtained at 485Ex/538Em (Step 1). […]

## CNCCN(C)C(=O)SSC(C)(C)C(NC(C)=O)C(=O)OC (centres unmarked) [Precursor 7a, 2-(((3-acetamido-4-methoxy-2-methyl-4-oxobutan-2-yl)disulfannecarbonyl)(methyl)amino)-N-methylethan-1-aminium]
[1]
  pseudo-first order rate constant of RSS-HPE-AM 9 formation: 0.58 ± 0.02 min⁻¹ and 0.57 ± 002 min⁻¹
  pseudo-first order rate constant of byproduct 2a formation: 0.57 ± 0.02 min⁻¹ and 0.58 ± 0.03 min⁻¹
  pseudo-first order rate constant of precursor decomposition: 0.59 ± 0.02 min⁻¹

## COC(=O)C(NC(C)=O)C(C)(C)SSC(=O)N(C)CCN (centres unmarked) [Precursor 7b, 2-(((3-acetamido-4-methoxy-2-methyl-4-oxobutan-2-yl)disulfannecarbonyl)(methyl)amino)ethan-1-aminium]
[2]
  infarct size: 16%
H9c2 cells [3]
  protection against H2O2-mediated toxicity (CCK-8 viability): dose-dependent attenuation
[4]; 7b 100 μM, glutathione 500 μM, pH 7.4 ammonium bicarbonate 50 mM with DTPA, 37° C., 45 min
  byproduct 2b formation: 42 ± 1 µM
[4]; in the presence of GSH, pH 7.4
  yield of byproduct 2b: 42%
H9c2 cells [5]
  protection against H2O2-mediated toxicity (SYTOX): protective effects
